According to PubChem BioAssay AID2765 (Broad Institute, 2010):
The source made the active and inactive calls.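 How the source made its calls: active means half-maximal concentration for the rise in caspase light signal at or below ten times the top tested dose; inconclusive means flat fit between 30% and 70% activity, or unreliable curve fit; inactive means the rest.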

The molecules below were run on MEF A1-2A-BIM cells, caspase 3/7 luminescence, 3 h (assay: inducers of caspase signal in A1-dependent MEFs – cell-based, luminescence, retest, A1 inhibitor project, dose response (AID 2765)).

| SMILES | EC50 |
| --- | --- |
| Cn1cccc1C(=O)NC(=O)COC(=O)c1ccc(S(C)(=O)=O)cc1 | > 35 µM (inactive) |
| Nc1nc(CSc2nc3ccccc3[nH]2)nc(N2CCOCC2)n1 | > 35 µM (inactive) |
| Cc1cc(-c2onc(C)c2C(=O)Nc2ccc(C(F)(F)F)cc2)no1 | > 35 µM (inactive) |
| Cc1nc2sc(C(=O)O)c(N)c2c2c1COC(C)(C)C2 | > 35 µM (inactive) |
| CCCCNC(=S)N/N=C/c1ccc(OCC(=O)Nc2c(C)cc(C)cc2C)c(OC)c1 | > 35 µM (inactive) |
| COc1ccc(C(O)Cc2nccn2C)cc1 (centres undefined) | > 35 µM (inactive) |
| O=C(Nc1ccccc1N1CCCC1)C1CCN(S(=O)(=O)c2ccc(F)cc2)CC1 | > 35 µM (inactive) |
| COC(=O)c1ccc2c(c1)C(C)(C)C(/C=C/c1ccccc1O)=[N+]2C | 12.6 µM |
| Cc1cc(S(=O)(=O)N2CCCOC2CNC(=O)C(=O)NCc2ccco2)ccc1F (centres undefined) | > 35 µM (inactive) |
| O=C(CSc1nnc(-c2ccncc2)o1)Nc1ccc(F)c(F)c1 | > 35 µM (inactive) |
| O=C(O)CN1C(=O)C2C3CC(C2C1=O)C1C(c2ccccc2)c2sc(=O)[nH]c2SC31 (centres undefined) | > 35 µM (inactive) |
| O=C(Cc1cccc([N+](=O)[O-])c1)Nc1cccc(C(=O)N2CCOCC2)c1 | > 35 µM (inactive) |
| Cc1cc(NC(=O)CN(C)C)c([N+](=O)[O-])cc1C | > 35 µM (inactive) |
| Cc1ccc(SCCNC(=S)Nc2cc(C)ccc2C)cc1 | > 35 µM (inactive) |
| CO/N=C/C(C#N)=C/c1cc(C(=O)c2ccccc2)cn1C | > 35 µM (inactive) |
| CCOc1ccccc1/C=C/c1nc2ccccc2[nH]c1=O | > 35 µM (inactive) |
| CCOC(=O)[C@H]1[C@H]2COc3cc(OC)ccc3[C@@H]2N2C(=O)c3ccc(C)cc3NC(=O)[C@@]12C | > 35 µM (inactive) |
| CNC(=S)NC1(C)CCS(=O)(=O)C1 (centres undefined) | > 35 µM (inactive) |
| COc1ccc(N2CCN(C3CCCN(Cc4cccc(C(C)=O)c4)C3)CC2)cc1 (centres undefined) | > 35 µM (inactive) |
| O=[N+]([O-])/C=C/c1ccc2c(ccn2Cc2ccccc2)c1 | 12.3 µM |
| Cc1ccc(-n2nc3c(=O)n(C(C)C(=O)NCc4ccccc4Cl)nc(C)c3c2C)cc1 (centres undefined) | > 35 µM (inactive) |
| COc1ccc([C@H]2CC(=O)C=C(c3ccccc3C(F)(F)F)C2)cc1 | > 35 µM (inactive) |
| O=C(N/N=C/c1ccc(Cl)cc1Cl)c1ccc2nc[nH]c2c1 | > 35 µM (inactive) |
| COCc1cccc(NC(=O)CCc2ccccc2)c1 | > 35 µM (inactive) |
| CC1(C(=O)NCC2CC2)C=CC2(CCCCC2)N1C(=O)c1ccccc1 (centres undefined) | > 35 µM (inactive) |

| SMILES | EC50 |
| --- | --- |
| CCOC(=O)C1=C(c2ccccc2)O/C(=C(/C#N)C(F)(F)F)S1 | > 35 µM (inactive) |
| Cc1ccc(S(=O)(=O)N(C)Cc2ccc(C(=O)N/N=C/c3ccc(OC(F)F)cc3)cc2)cc1 | > 35 µM (inactive) |
| Cc1ccc2c(C(=O)N3CCN(c4ccccc4)CC3)cc(-c3cccnc3)nc2c1C | > 35 µM (inactive) |
| CC(C)(C)N(Cc1ccccc1)C(=O)COC(=O)CNC(=O)c1ccco1 | > 35 µM (inactive) |
| Cc1cc(N2C(=O)C=CC2=O)c([N+](=O)[O-])cc1C | > 35 µM (inactive) |
| CCOc1nc(NCCO)nc(NCCC2=CCCCC2)n1 | > 35 µM (inactive) |
| CN(C)C/C=C(\c1ccc(Br)cc1)c1cccnc1 | > 35 µM (inactive) |
| N[C@@]1(C(=O)O)CC[C@@H](C(=O)O)C1 | > 35 µM (inactive) |
| CC1(C)c2cc(O)ccc2OC1N1CCOCC1 (centres undefined) | > 35 µM (inactive) |
| COc1ccccc1NC(=O)Nc1c(C)n(C)n(-c2ccccc2)c1=O | > 35 µM (inactive) |
| CC(C)CCNC(=O)c1cc(-c2ccncc2)nc2ccc(S(=O)(=O)N3CCOCC3)cc12 | > 35 µM (inactive) |
| CCn1c(SCC(=O)Nc2ccc(C(C)=O)cc2)nc2c([nH]c3ccccc32)c1=O | 13 µM |
| O=[N+]([O-])c1ccc(CN2CCOCCOCCOCC2)cc1 | > 35 µM (inactive) |
| COc1ccc(N2CCN(C(=O)C3CCN(C(=O)c4ccc([N+](=O)[O-])cc4)CC3)CC2)cc1 | > 35 µM (inactive) |
| O=C(CNC(=O)c1ccc(Br)cc1)NC1CC1 | > 35 µM (inactive) |
| COc1ccc2c(c1)c(=O)c(C(=O)c1ccc(F)cc1)cn2CC(=O)Nc1ccc(F)cc1 | > 35 µM (inactive) |
| Cc1cc(NC(=O)c2ccc3c(c2)C(=O)N(Cc2ccccc2)C3=O)no1 | > 35 µM (inactive) |
| Cc1cc(NC(=O)COC(=O)C(Cc2ccccc2)NC(=O)c2ccco2)no1 (centres undefined) | > 35 µM (inactive) |
| CN(CC(=O)Nc1ccc(F)cc1)C(=O)c1ccccc1OCc1ccc(F)cc1 | > 35 µM (inactive) |
| Nc1nonc1-c1nc2ccccc2n1CC(=O)NC1CCCC1 | > 35 µM (inactive) |
| COc1cc2c3c([nH]c2cc1F)C(=O)NCC3 | > 35 µM (inactive) |
| CCOc1cc(/C=C\[N+](=O)[O-])ccc1OCC(=O)Nc1ccccc1C | 3.67 µM |
| O=C(Nc1nnc(C2CCCCC2)s1)C1CC(=O)N(c2ccc(F)cc2)C1 (centres undefined) | > 35 µM (inactive) |
| CCOC(=O)C1=C(C)N(C)C(=O)C1CC(=O)O (centres undefined) | > 35 µM (inactive) |
